Where “and” joins values, the source holds several entries; their conditions need not be identical. Identical values can stand only once. Counter-ions that a name gives are not always drawn.
Test system: human subjects
Experiment: Repeated measures knee extension strength test (Muscle Strength Test) during and after limb immobilization, placebo-controlled study
Type: in vivo
Settings: for Muscle strength, knee extension, Baseline Mean: baseline pre-dose; for Muscle strength, knee extension, LSMean change from baseline, Day 14: Day 14 (brace off); for Muscle strength, knee extension, LSMean change from baseline, Day 29: P 0.2 vs placebo; for Mean Difference Compound 1 vs Placebo, LSMean change in muscle strength, Day 29: P 0.2
Source text: A protocol for the experimental evaluation of the impact of a PPARδ agonist on muscle atrophy during and following the end of limb immobilization is provided below. In the protocol, reference to Compound 1 refers to (E)-[4-[3-(4-Fluorophenyl)-3-[4-[3-(morpholin-4-yl)propynyl]phenyl]allyloxy]-2-methyl-phenoxy]acetic acid sodium salt.
A randomized, investigator and subject blind, sponsor open, placebo-controlled study evaluating the possible impact of Compound 1 on the recovery of muscle atrophy from limb immobilization is described. Subjects will be leg immobilized using a knee brace (30 degrees flexion on the left leg to allow driving) and will be provided with walking crutches such that there is no weight bearing on the immobilized leg. Subjects will be enrolled and randomized to receive Compound 1 or placebo (both referenced as Study Drug in this protocol). The study consists of five periods termed SCR (screening period, Day −35 to −3), BL (baseline period: Day −1 to Day 1 [am]), IMM (limb immobilization and treatment with study drug, Day 1 [pm] to Day 14), TRE (treatment with study drug without limb immobilization, Day 15 to Day 29) and REC (no treatment recovery period, Day 29 to Day 42). There will be six testing days during the study: Day 1 (baseline), Day 14 (brace off day), Day 16 (48 hours after brace off), Day 21, Day 29 (last dose) and Day 42 (final study visit). On each testing day, subjects will undergo the combination of several testing procedures in sequential order as listed: 1) Morning activity plus approximately 500-step walk (when domiciled at Clinical Research Unit [CRU]); 2) Blood sampling; 3) Standardized breakfast (Study Drug administration will be immediately before the breakfast except for Day 42); 4) Muscle biopsy; 5) Leg muscle strength tests (MST) and modified physical performance test (PPT); and 6) Magnetic resonance imaging (MRI) of the thigh to evaluate thigh muscle volume/cross-section area (CSA).
Two treatment groups in this study: • a) Treatment group A: Treated with 100 mg of Compound 1 twice daily from Day 1 to Day 29. • b) Treatment group B: Treated with placebo twice daily from Day 1 to Day 29.
The maximal amount of weight that the participant is able to lift for one repetition (1-RM) will be measured on a Hoist multi-station weight machine for the following exercises: leg press, knee extension, knee flexion, and bench press. Isokinetic (Cybex) testing of knee extension/flexion will be done to assess deficiencies in rapid strength recruitment. Subjects will be seated on the testing device and strapped in to prevent the pelvis from sliding forward. The movement arm will be adjusted to the subject's leg length and the weight of the leg will be determined. Isokinetic testing of the knee extensors and flexors will be performed at 0°/s, 60°/s and 180°/s. Four to five repetitions at each mode will be performed with the highest two values used for data analysis. Subjects will be familiarized with these procedures during the screening visit.
An experimental study was conducted to evaluate the impact of Compound 1, a PPARδ agonist, on muscle atrophy during and following the end of limb immobilization in human subjects. Except where specifically noted otherwise below, all methods were conducted as described in the protocol above.
Methods were generally conducted as described in the protocol. The study was designed as a double-blind, randomized, placebo-controlled, parallel study in healthy male subjects. A total of N=24 subjects were randomized. The number of randomized subjects is lower than originally planned. A total of N=21 subjects had data available for statistical analysis.
Multiple imputation statistical methods were used to preserve the intent-to-treat (ITT) principle while coping with invalid and missing data.
Primary analysis was executed as defined in the study protocol and the statistical analysis plan (see protocol described above). […]

**Q.** Which results are given for `Cc1cc(OC/C=C(/c2ccc(F)cc2)c2ccc(C#CCN3CCOCC3)cc2)ccc1OCC(=O)O` [Compound 1, (E)-[4-[3-(4-Fluorophenyl)-3-[4-[3-(morpholin-4-yl)propynyl]phenyl]allyloxy]-2-methyl-phenoxy]acetic acid sodium salt]?
**A.** Change in muscle strength compared to baseline, difference to placebo (14 days following the end of immobilization (i.e., day 28)): no longer significantly different; Muscle strength, knee extension, Baseline Mean (Table 1 primary analysis, multiple imputation for missing and invalid data, n = 10, healthy males, raw data in lbs): 195; Muscle strength, knee extension, LSMean change from baseline, Day 14 (Table 1 primary analysis, multiple imputation, 100 mg twice daily, n = 10, P 0.012 vs placebo): −2.9; Mean Difference Compound 1 vs Placebo, LSMean change in muscle strength, Day 14 (Table 1 primary analysis, multiple imputation, P 0.012): 36; Muscle strength, knee extension, LSMean change from baseline, Day 21 (primary) (Table 1 primary analysis, multiple imputation, 100 mg twice daily, n = 10, P 0.004 vs placebo): 36.8; Mean Difference Compound 1 vs Placebo, LSMean change in muscle strength, Day 21 (primary) (Table 1 primary analysis, multiple imputation, P 0.004): 36.5; Muscle strength, knee extension, LSMean change from baseline, Day 29 (Table 1 primary analysis, multiple imputation, 100 mg twice daily, n = 10): 30.4; Mean Difference Compound 1 vs Placebo, LSMean change in muscle strength, Day 29 (Table 1 primary analysis, multiple imputation): 21.9; Mean Difference Compound 1 vs Placebo, Baseline mean muscle strength (Table 1 primary analysis, multiple imputation, P 0.3): 19; Muscle strength, knee extension, Baseline Mean (Table 2 supportive analysis, no imputation, excluding protocol violators, n = 9): 191 lbs; Muscle strength, knee extension, LSMean change from baseline, Day 14 (Table 2 supportive analysis, no imputation, 100 mg twice daily, n = 9, P 0.04 vs placebo): −1.9 lbs; Mean Difference Compound 1 vs Placebo, LSMean change in muscle strength, Day 14 (Table 2 supportive analysis, no imputation, P 0.04): 36.3 lbs; Muscle strength, knee extension, LSMean change from baseline, Day 21 (primary) (Table 2 supportive analysis, no imputation, 100 mg twice daily, n = 9, P 0.048 vs placebo): 31.5 lbs; Mean Difference Compound 1 vs Placebo, LSMean change in muscle strength, Day 21 (primary) (Table 2 supportive analysis, no imputation, P 0.048): 31.3 lbs; Muscle strength, knee extension, LSMean change from baseline, Day 29 (Table 2 supportive analysis, no imputation, 100 mg twice daily, n = 9): 32.5 lbs; Mean Difference Compound 1 vs Placebo, LSMean change in muscle strength, Day 29 (Table 2 supportive analysis, no imputation): 19.4 lbs; Mean Difference Compound 1 vs Placebo, Baseline mean muscle strength (Table 2 supportive analysis, no imputation, P 0.4): 23 lbs; Primary muscle strength variable of analysis vs placebo (human subjects, N=21 with data available): statistically significant superiority over placebo; Rate of loss of muscle strength during immobilization (human subjects, compared to their baseline measurements): reduced to almost zero; Mean change from baseline to day 21 in muscle strength relative to placebo (human subjects, day 21): showed superiority; Muscle atrophy during immobilization (rate of loss of muscle strength relative to placebo) (human subjects, during immobilization): effective in reducing muscle atrophy during immobilization; Atrophy following immobilization (rate of return of muscle strength to baseline relative to placebo) (human subjects, following immobilization): reducing atrophy following immobilization; Maximum muscle strength on the knee extension (KE), raw value, Day 1 (individual Treated subjects A-I, Day 1 baseline, pre-dose, sodium salt): 220.5 Lbs and 145.5 Lbs and 215.5 Lbs and 265.5 Lbs and 123 Lbs and 260.5 Lbs and 168 Lbs and 163 Lbs and 160.5 Lbs; Maximum muscle strength on the knee extension (KE), raw value, Day 14 (individual Treated subjects A-I, Day 14, day brace is removed, 100 mg twice daily, sodium salt): 200.5 Lbs and 195 Lbs and 163 Lbs and 255.5 Lbs and 120.5 Lbs and 225.5 Lbs and 158 Lbs and 185.5 Lbs and 170.5 Lbs; Maximum muscle strength on the knee extension (KE), raw value, Day 21 (individual Treated subjects A-I, Day 21, primary endpoint, 100 mg twice daily, sodium salt): 270.5 Lbs (3×) and 225.5 Lbs and 213 Lbs and 158 Lbs and 183 Lbs and 205.5 Lbs; Maximum muscle strength on the knee extension (KE), raw value, Day 29 (individual Treated subjects A-I, Day 29, final assessment during treatment period, sodium salt): 270.5 Lbs (2×) and 235.5 Lbs and 225.5 Lbs and 213 Lbs and 150.5 Lbs and 183 Lbs and 230.5 Lbs; Maximum muscle strength on the knee extension (KE), raw value, Day 42 (individual Treated subjects A-I, Day 42, safety follow-up after end of treatment, sodium salt): 270.5 Lbs (3×) and 265.5 Lbs and 238 Lbs and 158 Lbs and 183 Lbs and 220.5 Lbs
